Experimental data reported in US11542297B2, “Compositions and methods for treating CNS disorders” (Sage Therapeutics, Inc., priority 2014, dated 2023).

Test system: PTZ-treated mice
Test: Acute PTZ method (pentylenetetrazol-induced seizure assay)
Assay type: in vivo
Conditions: Mus musculus, lowest dose significantly affecting latency to tonic seizures in PTZ-treated mice, PO, read-out: Anticonvulsive Effect Dose
Experimental: The anticonvulsant effect of test compounds were assessed in a pentylenetetazol-induced seizure assay in mice similar to methods described in Giardina & Gasior (Curr Protoc Pharmacol. 2009). Male CD-1 mice were housed in groups of five under controlled conditions (temperature of 22±2° C. and 12:12 light-dark cycle, lights on at 8:00 am) and water and food were available ad libitum. The mice were housed for 1 week prior to behavioral testing, at which time they weighed 25-35 g. Pentylenetetrazol (PTZ, Sigma) was dissolved in sterile 0.9% saline at a concentration of 12 mg/mL concentration for subcutaneous administration. Test compounds were formulated and administered via oral gavage or intraperitoneal injection at a predetermined time-point (typically 30 or 60 minutes) prior to PTZ injection. […]
Mice were acclimated to the test room for at least 30 min before compound administration. […] Each mouse was continuously observed for 30 min and the following behaviors were recorded by observers blinded to the treatments: 1) latency to clonic convulsions that persist for 3 sec and followed by an absence of righting reflex 2) latency to tonic convulsions, characterized by the rigid extension of all four limbs that exceeded a 90 degree angle with the body 3) latency to death 4) number of clonic and tonic convulsions. […]

`C[C@@]1(O)CC[C@@]2(C)[C@H](CC[C@@H]3[C@@H]2CC[C@]2(C)[C@@H](C(=O)Cn4ccc(C#N)n4)CC[C@@H]32)C1` [Compound 24] showed a minimal effective dose of 1 to 5 mg/kg.
With `Cc1nnn(CC(=O)[C@H]2CC[C@H]3[C@@H]4CC[C@@H]5C[C@](C)(O)CC[C@]5(C)[C@H]4CC[C@]23C)n1` [Compound 32] the minimal effective dose was ≤ 1 mg/kg.
